In patent US12528818B2, “Compositions and methods for inhibition of RAS” (Leidos Biomedical Research, Inc., priority 2021, dated 2026):

These molecules were tested on pERK in NCI-H358 cells (assay: Cell-based pERK HTRF assay (pERK inhibition in H358 cells)). Conditions: Homo sapiens, NCI-H358, 0.5 h, pERK inhibition IC50, NCI-H358 cells, 30 min incubation; read-out: PERK in H358 cell.

Compared with C=CC(=O)N1CCC(N(C)c2nc(OCCO)nc3c(F)c(-c4ccc(F)c5sc(N)c(C#N)c45)ccc23)[C@H]1C (stereo partly shown) [Compound 468], C=CC(=O)N1CCC(N(C)c2nc(OC[C@@]34CCCN3C[C@H](OC)C4)nc3c(F)c(-c4ccc(F)c5sc(N)c(C#N)c45)c(Cl)cc23)[C@H]1C (stereo partly shown) [Compound 474] is lower in IC50: 100 to 1000 nM for the first, less than 100 nM for the second.

C=CC(=O)N1CC[C@@H](N(C)c2nc(OC[C@@]34CCCN3C[C@H](F)C4)nc3c(F)c(-c4ccc(F)c5sc(N)c(C#N)c45)c(C(F)(F)F)cc23)[C@@H]1C [Compound 469] and C=CC(=O)N1CCC(N(C)c2nc(OC[C@]34CCCN3C[C@H](F)C4)nc3c(F)c(-c4ccc(F)c5sc(N)c(C#N)c45)c(C(F)(F)F)cc23)[C@H]1C (stereo partly shown) [Compound 477] cannot be ordered by IC50: less than 100 nM for the first, less than 100 nM for the second.

C=CC(=O)N1CCC(N(CC)c2nc(OC[C@@H]3CCCN3C)nc3cc(-c4ccc(F)c5sc(N)c(C#N)c45)c(C#N)cc23)[C@H]1COC (stereo partly shown) [Compound 470] and C=CC(=O)N1CCC(N(CC)c2nc(OC[C@@H]3C[C@@H](F)CN3C)nc3cc(-c4ccc(F)c5sc(N)c(C#N)c45)c(C#N)cc23)[C@H]1COC (stereo partly shown) [Compound 471] fall in the same range of IC50: 100 to 1000 nM for the first, 100 to 1000 nM for the second.

In the case of C=CC(=O)N1CCC(N(C)c2nc(OC[C@@]34CCCN3C[C@H](OC)C4)nc3c(F)c(-c4ccc(F)c5sc(N)c(C#N)c45)c(C(F)(F)F)cc23)[C@H]1C (stereo partly shown) [Compound 476], the IC50 is reported as less than 100 nM.
